From PubChem BioAssay (NCI)
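These data come from cells grown in 96-well plates and exposed to compound for 48 hours at five concentrations. The concentration for 50% growth inhibition is given as GI50. TGI: concentration producing complete growth inhibition.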

Legend:
Test in all cases: NCI tumour cell line growth inhibition, 48 h
SF-268 CNS = system: SF-268 CNS
KM12 colon = system: KM12 colon
SNB-19 CNS = system: SNB-19 CNS
MCF7 breast = system: MCF7 breast
MOLT-4 leukemia = system: MOLT-4 leukemia
DU-145 prostate = system: DU-145 prostate
786-0 renal = system: 786-0 renal
ACHN renal = system: ACHN renal
SF-539 CNS = system: SF-539 CNS
A498 renal = system: A498 renal
M14 melanoma = system: M14 melanoma
PC-3 prostate = system: PC-3 prostate
HCT-15 colon = system: HCT-15 colon
HT29 colon = system: HT29 colon
UO-31 renal = system: UO-31 renal
HOP-62 NSCLC = system: HOP-62 NSCLC
CCRF-CEM leukemia = system: CCRF-CEM leukemia
TK-10 renal = system: TK-10 renal
COLO 205 colon = system: COLO 205 colon
MDA-MB-435 = system: MDA-MB-435
UACC-62 melanoma = system: UACC-62 melanoma
RPMI-8226 leukemia = system: RPMI-8226 leukemia
OVCAR-5 ovarian = system: OVCAR-5 ovarian
IGROV1 ovarian = system: IGROV1 ovarian
EKVX NSCLC = system: EKVX NSCLC
BT-549 breast = system: BT-549 breast
SN12C renal = system: SN12C renal
LOX IMVI melanoma = system: LOX IMVI melanoma
OVCAR-3 ovarian = system: OVCAR-3 ovarian
HOP-92 NSCLC = system: HOP-92 NSCLC
U251 CNS = system: U251 CNS
RXF 393 renal = system: RXF 393 renal
NCI-H226 lung = system: NCI-H226 lung
NCI-H23 lung = system: NCI-H23 lung
T-47D breast = system: T-47D breast
K-562 leukemia = system: K-562 leukemia
HCC-2998 colon = system: HCC-2998 colon
HL-60(TB) leukemia = system: HL-60(TB) leukemia
SW-620 colon = system: SW-620 colon
SK-MEL-5 melanoma = system: SK-MEL-5 melanoma
OVCAR-4 ovarian = system: OVCAR-4 ovarian
MDA-MB-468 breast = system: MDA-MB-468 breast
MALME-3M melanoma = system: MALME-3M melanoma
HS 578T breast = system: HS 578T breast
NCI-H460 lung = system: NCI-H460 lung
A549 NSCLC = system: A549 NSCLC
SK-MEL-28 melanoma = system: SK-MEL-28 melanoma
HCT-116 colon = system: HCT-116 colon
SK-OV-3 ovarian = system: SK-OV-3 ovarian
SF-295 CNS = system: SF-295 CNS
UACC-257 melanoma = system: UACC-257 melanoma
OVCAR-8 ovarian = system: OVCAR-8 ovarian
CAKI-1 renal = system: CAKI-1 renal
SK-MEL-2 melanoma = system: SK-MEL-2 melanoma
NCI-H522 lung = system: NCI-H522 lung
MDA-MB-231 breast = system: MDA-MB-231 breast
SR leukemia = system: SR leukemia

Question: Which GI50 (SF-268 CNS) does the source give for `Cn1cc(-c2cc3nc(-c4cn(C)c5ncc(Br)cc45)cc(N)n3n2)c2cc(F)ccc21` here?
Answer: 19.2 µM

Question: And the TGI (SF-268 CNS)?
Answer: 79.8 µM

Question: And the GI50 (KM12 colon)?
Answer: 12.9 µM

Question: What about the TGI (KM12 colon) of the same molecule?
Answer: 49 µM

Question: What about the GI50 (SNB-19 CNS) of the same molecule?
Answer: 11 µM

Question: What about the TGI (SNB-19 CNS) of the same molecule?
Answer: 23.8 µM

Question: What about the GI50 (MCF7 breast) of the same molecule?
Answer: 3.6 µM

Question: What about the TGI (MCF7 breast) of the same molecule?
Answer: 12.8 µM

Question: What about the GI50 (MOLT-4 leukemia) of the same molecule?
Answer: 5.98 µM

Question: And the TGI (MOLT-4 leukemia)?
Answer: > 100 µM

Question: And the GI50 (DU-145 prostate)?
Answer: 5.16 µM

Question: What about the TGI (DU-145 prostate) of the same molecule?
Answer: 19.3 µM

Question: What about the GI50 (786-0 renal) of the same molecule?
Answer: 4.64 µM

Question: What about the TGI (786-0 renal) of the same molecule?
Answer: 17 µM

Question: And the GI50 (ACHN renal)?
Answer: 3.72 µM

Question: And the TGI (ACHN renal)?
Answer: 13.2 µM

Question: What about the GI50 (SF-539 CNS) of the same molecule?
Answer: 3.54 µM

Question: What about the TGI (SF-539 CNS) of the same molecule?
Answer: 13 µM

Question: And the GI50 (A498 renal)?
Answer: 13.5 µM

Question: What about the TGI (A498 renal) of the same molecule?
Answer: 30.2 µM

Question: And the GI50 (M14 melanoma)?
Answer: 4.05 µM

Question: And the TGI (M14 melanoma)?
Answer: 14.9 µM

Question: What about the GI50 (PC-3 prostate) of the same molecule?
Answer: 10.4 µM

Question: And the TGI (PC-3 prostate)?
Answer: 46.8 µM

Question: And the GI50 (HCT-15 colon)?
Answer: 3.73 µM

Question: What about the TGI (HCT-15 colon) of the same molecule?
Answer: 16.4 µM

Question: What about the GI50 (HT29 colon) of the same molecule?
Answer: 3.18 µM

Question: What about the TGI (HT29 colon) of the same molecule?
Answer: 11.3 µM

Question: And the GI50 (UO-31 renal)?
Answer: 12.2 µM

Question: What about the TGI (UO-31 renal) of the same molecule?
Answer: 25.4 µM

Question: What about the GI50 (HOP-62 NSCLC) of the same molecule?
Answer: 7.8 µM

Question: And the TGI (HOP-62 NSCLC)?
Answer: 24.3 µM

Question: What about the GI50 (CCRF-CEM leukemia) of the same molecule?
Answer: 8.29 µM

Question: What about the TGI (CCRF-CEM leukemia) of the same molecule?
Answer: > 100 µM

Question: And the GI50 (TK-10 renal)?
Answer: 4.92 µM

Question: And the TGI (TK-10 renal)?
Answer: 18.8 µM

Question: What about the GI50 (COLO 205 colon) of the same molecule?
Answer: 12.6 µM

Question: What about the TGI (COLO 205 colon) of the same molecule?
Answer: 40.7 µM

Question: What about the GI50 (MDA-MB-435) of the same molecule?
Answer: 6.19 µM

Question: And the TGI (MDA-MB-435)?
Answer: 20.1 µM

Question: What about the GI50 (UACC-62 melanoma) of the same molecule?
Answer: 2.64 µM

Question: And the TGI (UACC-62 melanoma)?
Answer: 10.9 µM

Question: And the GI50 (RPMI-8226 leukemia)?
Answer: 10.1 µM

Question: And the TGI (RPMI-8226 leukemia)?
Answer: > 100 µM

Question: And the GI50 (OVCAR-5 ovarian)?
Answer: 12.5 µM

Question: And the TGI (OVCAR-5 ovarian)?
Answer: 29.4 µM

Question: What about the GI50 (IGROV1 ovarian) of the same molecule?
Answer: 3.91 µM

Question: And the TGI (IGROV1 ovarian)?
Answer: 14.1 µM

Question: What about the GI50 (EKVX NSCLC) of the same molecule?
Answer: 11.4 µM

Question: And the TGI (EKVX NSCLC)?
Answer: 29.7 µM

Question: And the GI50 (BT-549 breast)?
Answer: 10.9 µM

Question: What about the TGI (BT-549 breast) of the same molecule?
Answer: 23.6 µM

Question: And the GI50 (SN12C renal)?
Answer: 4.41 µM

Question: And the TGI (SN12C renal)?
Answer: 19.8 µM

Question: And the GI50 (LOX IMVI melanoma)?
Answer: 1.91 µM

Question: And the TGI (LOX IMVI melanoma)?
Answer: 3.47 µM

Question: What about the GI50 (OVCAR-3 ovarian) of the same molecule?
Answer: 11.1 µM

Question: What about the TGI (OVCAR-3 ovarian) of the same molecule?
Answer: 27 µM

Question: And the GI50 (HOP-92 NSCLC)?
Answer: 11.3 µM

Question: And the TGI (HOP-92 NSCLC)?
Answer: 33.8 µM

Question: What about the GI50 (U251 CNS) of the same molecule?
Answer: 3.23 µM

Question: What about the TGI (U251 CNS) of the same molecule?
Answer: 11.5 µM

Question: And the GI50 (RXF 393 renal)?
Answer: 2.54 µM

Question: What about the TGI (RXF 393 renal) of the same molecule?
Answer: 5.96 µM

Question: What about the GI50 (NCI-H226 lung) of the same molecule?
Answer: 5.36 µM

Question: What about the TGI (NCI-H226 lung) of the same molecule?
Answer: 19.8 µM

Question: And the GI50 (NCI-H23 lung)?
Answer: 7.44 µM

Question: What about the TGI (NCI-H23 lung) of the same molecule?
Answer: 21.3 µM

Question: What about the GI50 (T-47D breast) of the same molecule?
Answer: 3.25 µM

Question: What about the TGI (T-47D breast) of the same molecule?
Answer: 15.6 µM

Question: And the GI50 (K-562 leukemia)?
Answer: 6 µM

Question: What about the TGI (K-562 leukemia) of the same molecule?
Answer: > 100 µM

Question: What about the GI50 (HCC-2998 colon) of the same molecule?
Answer: 7.19 µM

Question: What about the TGI (HCC-2998 colon) of the same molecule?
Answer: 27.6 µM

Question: What about the GI50 (HL-60(TB) leukemia) of the same molecule?
Answer: 12.1 µM

Question: And the TGI (HL-60(TB) leukemia)?
Answer: 73.1 µM

Question: And the GI50 (SW-620 colon)?
Answer: 6.46 µM

Question: And the TGI (SW-620 colon)?
Answer: 21.5 µM

Question: What about the GI50 (SK-MEL-5 melanoma) of the same molecule?
Answer: 12.5 µM

Question: What about the TGI (SK-MEL-5 melanoma) of the same molecule?
Answer: 25.4 µM

Question: What about the GI50 (OVCAR-4 ovarian) of the same molecule?
Answer: 4.51 µM

Question: What about the TGI (OVCAR-4 ovarian) of the same molecule?
Answer: 19.3 µM

Question: And the GI50 (MDA-MB-468 breast)?
Answer: 1.95 µM

Question: And the TGI (MDA-MB-468 breast)?
Answer: 4.19 µM

Question: What about the GI50 (MALME-3M melanoma) of the same molecule?
Answer: 3.43 µM

Question: And the TGI (MALME-3M melanoma)?
Answer: 12.1 µM

Question: What about the GI50 (HS 578T breast) of the same molecule?
Answer: 10.7 µM

Question: And the TGI (HS 578T breast)?
Answer: 48.6 µM

Question: What about the GI50 (NCI-H460 lung) of the same molecule?
Answer: 3.44 µM

Question: And the TGI (NCI-H460 lung)?
Answer: 11.6 µM

Question: What about the GI50 (A549 NSCLC) of the same molecule?
Answer: 3.37 µM

Question: What about the TGI (A549 NSCLC) of the same molecule?
Answer: 16.8 µM

Question: What about the GI50 (SK-MEL-28 melanoma) of the same molecule?
Answer: 3.9 µM

Question: And the TGI (SK-MEL-28 melanoma)?
Answer: 14.4 µM

Question: And the GI50 (HCT-116 colon)?
Answer: 15 µM

Question: What about the TGI (HCT-116 colon) of the same molecule?
Answer: 32.3 µM

Question: What about the GI50 (SK-OV-3 ovarian) of the same molecule?
Answer: 15 µM

Question: What about the TGI (SK-OV-3 ovarian) of the same molecule?
Answer: 32.4 µM

Question: And the GI50 (SF-295 CNS)?
Answer: 1.8 µM

Question: What about the TGI (SF-295 CNS) of the same molecule?
Answer: 3.82 µM

Question: What about the GI50 (UACC-257 melanoma) of the same molecule?
Answer: 7.29 µM

Question: And the TGI (UACC-257 melanoma)?
Answer: 21.4 µM

Question: And the GI50 (OVCAR-8 ovarian)?
Answer: 6.2 µM

Question: And the TGI (OVCAR-8 ovarian)?
Answer: 20.9 µM

Question: What about the GI50 (CAKI-1 renal) of the same molecule?
Answer: 8.11 µM

Question: What about the TGI (CAKI-1 renal) of the same molecule?
Answer: 22.5 µM

Question: What about the GI50 (SK-MEL-2 melanoma) of the same molecule?
Answer: 11.4 µM

Question: What about the TGI (SK-MEL-2 melanoma) of the same molecule?
Answer: 24.2 µM

Question: What about the GI50 (NCI-H522 lung) of the same molecule?
Answer: 5.61 µM

Question: And the TGI (NCI-H522 lung)?
Answer: 21.6 µM

Question: And the GI50 (MDA-MB-231 breast)?
Answer: 2.9 µM

Question: What about the TGI (MDA-MB-231 breast) of the same molecule?
Answer: 10 µM

Question: What about the GI50 (SR leukemia) of the same molecule?
Answer: 4.58 µM

Question: What about the TGI (SR leukemia) of the same molecule?
Answer: > 100 µM
